In patent publication US20240307419A1, “CONFORMATIONALLY-CONSTRAINED INHIBITORS OF 3C OR 3C-LIKE PROTEASES” (priority 2021, published 2024):
Where two headings read alike, the source gives them in different places.

What was measured:
SARS-CoV-2 [1] = tested on: SARS-CoV-2
SARS-CoV-2 3CLpro = SARS-CoV-2 3CLpro (Severe acute respiratory syndrome coronavirus 2 (2019-nCoV) (SARS-CoV-2), UniProt P0DTD1); experiment: biochemical; format: biochemical; conditions: read-out: IC50
MERS-CoV 3CLpro = MERS-CoV 3CLpro (Middle East respiratory syndrome-related coronavirus (isolate United Kingdom/H123990006/2012) (MERS-CoV) (Betacoronavirus England 1), UniProt K9N7C7); format: biochemical
Sequence of MERS-CoV 3CLpro (K9N7C7 3248-3553 limits assumed): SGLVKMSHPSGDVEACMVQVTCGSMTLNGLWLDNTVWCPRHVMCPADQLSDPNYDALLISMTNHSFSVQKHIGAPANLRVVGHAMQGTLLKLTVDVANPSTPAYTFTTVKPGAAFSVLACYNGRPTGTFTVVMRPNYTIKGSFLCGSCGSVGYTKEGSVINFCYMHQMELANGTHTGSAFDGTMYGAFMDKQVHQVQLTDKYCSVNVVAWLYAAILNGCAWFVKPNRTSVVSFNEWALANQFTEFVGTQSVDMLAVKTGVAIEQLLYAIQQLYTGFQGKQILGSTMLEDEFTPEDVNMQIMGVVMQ

[2] = tested on: Huh-7, CRFK, or CCL1 cells
SARS-CoV-2 [3] = experiment: microbe, parasite or virus in culture; conditions: Severe acute respiratory syndrome coronavirus 2, Vero C1008, read-out: EC50 against SARS-CoV-2 in Vero E6 cells
SARS-CoV-2 [4] = experiment: in vitro; conditions: African green monkey
SARS-CoV-2 replicon [5] = experiment: microbe, parasite or virus in culture; format: cell-based; conditions: read-out: EC50, SARS-CoV-2 replicon assay
SARS-CoV-2 replicon [6] = conditions: 293T cells, previously reported; read-out: EC50 previously reported with the same system; cited from earlier work
[7] = tested on: feline infectious peritonitis virus (FIPV); conditions: cell culture and naturally infected animals with long term treatment; previously reported; cited from earlier work

Structure (SMILES)	EC50 lower than the corresponding IC50 values (SARS-CoV-2 [1])	IC50 (SARS-CoV-2 3CLpro)	IC50 (MERS-CoV 3CLpro)	CC50 [2]	other results
CC(C)C[C@H](NC(=O)OC[C@@H]1C[C@@H]2CCC[C@@H](C2)C1)C(=O)N[C@H](C=O)C[C@@H]1CCNC1=O [Compound 2a, ((1R,3s,5S)-Bicyclo[3.3.1]nonan-3-yl)methyl ((S)-4-methyl-1-oxo-1-(((S)-1-oxo-3-((S)-2-oxopyrrolidin-3-yl)propan-2-yl)amino)pentan-2-yl)carbamate]	~4.6 fold	0.18 ± 0.03 µM	0.052 ± 0.001 µM	> 100 µM	selectivity indices (SARS-CoV-2 [1]): 2857; EC50 (SARS-CoV-2 [1]; read-out: EC50 against SARS-CoV-2 in Vero E6 cells): 0.035 µM
CC(C)C[C@H](NC(=O)OCC1C[C@H]2CCC[C@@H](C1)C2)C(=O)N[C@@H](C[C@@H]1CCNC1=O)C(O)S(=O)(=O)[O-].[Na+] (stereo partly drawn) [Compound 3a, Sodium (2S)-2-((2S)-2-(((((1R,5S)-bicyclo[3.3.1]nonan-3-yl)methoxy)carbonyl)amino)-4-methylpentanamido)-1-hydroxy-3-((S)-2-oxopyrrolidin-3-yl)propane-1-sulfonate]	~4.6 fold	0.17 ± 0.02 µM	0.049 ± 0.002 µM	> 100 µM	EC50 (SARS-CoV-2 [3]): 0.032 µM; selectivity ratio (SARS-CoV-2 [4]): 3120
CC(C)C[C@H](NC(=O)OCc1ccccc1)C(=O)N[C@@H](CC1CCNC1=O)C(O)S(=O)(=O)O (stereo partly drawn) [GC376]					EC50 (SARS-CoV-2 replicon [5]): 0.037 ± 0.01 µM; EC50 (SARS-CoV-2 replicon [6]): 0.02 µM
CC(C)C[C@H](NC(=O)OCc1ccccc1)C(=O)N[C@@H](C[C@@H]1CCNC1=O)C(O)S(=O)(=O)[O-].[Na+] (stereo partly drawn) [GC376]					barrier to resistance to FIPV [7]: high barrier to resistance
